Source: patent US10894820B2, “Antiretroviral drug targeting human endogenous retrovirus” (priority 2014, dated 2021)

Experiments:
[1] = healthy volunteers, Phase 1
[2] = system: HERV-W Reverse-transcriptase (RT); experiment: Western blot of HERV-W pol-encoded Reverse-Transcriptase protein in CH1/CH2 cell cultures treated with GNbAC1 and/or AZT; type: cell-based, Human; details: CH1 and CH2 co-culture; AZT 1 μg/ml, GNbAC1 300 μg/ml; versus mock-treated cells
Protocol: Human CH1 and CH2 cells (1:1) cells were co-cultured for optimizing the growth of CH2 cells and maintained in 6-well plates (CC7672-7506; CytoOne) at a density of 1.10^6 cell/well in IMDM medium (Ser. No. 12/440,053; Lifetech) supplemented with 10% fetal calf serum (Ser. No. 10/270,106; Invitrogen), 1% penicillin/streptomycin (P4333; Sigma) at 37° C. with 5% CO2. Cells were treated with i) AZT (1 μg/ml, A21-69; Sigma), ii) GNbAC1 (300 μg/ml, T950111-A; Polymun), iii) AZT+GNbAC1 or corresponding controls with GNbAC1 buffer [20 mM His, 5% Sucrose (w/v), 0.01% Tween 20 (w/v)].
CH1 and CH2 cells were resuspended in 200 μl of RIPA buffer (R0278, SIGMA) containing cOmplete® anti-phosphatase inhibitor cocktail (04 693 132001; Roche) and 0.05% LPG (326495-22-1; Avanti Polar) at 4° C., incubated for 2 hours at 26° C. on a rotating platform and centrifuged at 10000 g for 20 minutes at 26° C. Supernatant were collected and stored at −20° C.
Protein extracts were diluted (2:1) in 2× Laemmli buffer (Biorad) and heated for 5 minutes at 100° C. before loading. Proteins were separated by 7.5% sodium dodecyl sulfate-polyacrylamide gel electrophoresis (TGX, Biorad). Gels were run for a time period of 15 min at 120 mA in running buffer (Life Technologies). […] Protein of interest was detected with a colometric reaction (Opti 4-CN, Biorad), according to the provided protocol. […]

[3] = system: HERV-W related transcripts (env and pol mRNA); experiment: HERV-W related transcripts levels by RT-qPCR in PBMC of MS patients treated with GNbAC1 (GNC002 Phase IIa trial); type: in vivo, human; details: for all HERV-W transcript levels compared to basal values at inclusion: at the 6th monthly GNbAC1 administration, relative expression to GUS B
Protocol: The present GNC002 Phase IIa clinical trial was performed to assess the safety profile and the pharmacokinetics of GNbAC1 at 2 and 6 mg/kg in 10 MS patients. GNC002 consisted in a 12 months longitudinal study, in which GNbAC1 is administered on a monthly basis.
The present analysis was conducted on samples collected during the first 6 months of GNC002, where HERV-W related transcripts levels were assessed by real time quantitative polymerase chain reaction (RT-qPCR) in peripheral blood mononuclear cells (PBMC) of enrolled patients. HERV-W transcripts are assessed by different primers/probe sets as follows: MSRV-env, HERV-W-UNO, HERV-W-UNO2,
Briefly, the first step consisted in the extraction of total RNA from PBMC samples. Samples were PBMC isolated from blood collected on CPT tubes and frozen in 0.5 ml of DMSO 10% in Foetal Calf Serum. After thawing, PBMC samples were washed with ice-cold PBS and total RNAs were extracted with QIAamp RNeasy Mini Kit. Then, cDNAs were prepared by retro-transcribing all mRNA contained in previously extracted total RNAs. Quantitative PCRs were conducted on these cDNAs, with addition of an internal standard used as an inter-plate calibrator (allowing the standardization of the values throughout an experiment with multiple plates). Results were expressed as the relative expression of the targeted RNA (MSRV/HERV-W), by a ratio to the expression of GUS B RNA, a reference housekeeping gene with a stable expression level in MS population.
The Relative Expression of each targeted RNA within each sample is calculated as follows: Targeted RNA Relative Expression to GUS B=2^(Cq GUS B-Cq targeted RNA) Extraction Yields and Samples Exclusion
For each patient included in the study, PBMCs were isolated from blood sample at Day 1 (inclusion), Day 2, Day 8, Day 15, and Day 29. Afterwards, patients have received 5 additional monthly GNbAC1 administrations and PBMCs were isolated from blood sample before each infusion of antibody. Thus, the following results represent the variation of each HERV-W related transcript over the first 6 months of GNC002 study.
The second GNbAC1 administration occurred at different time points from Day 1, depending on patients. Thus, the mean variation of HERV-W related transcripts was assessed with blood samples collected before each GNbAC1 administration only.

For “GNbAC1: humanized IgG4 monoclonal antibody directed against HERV-W/MSRV Envelope protein; heavy chain SEQ ID No: 9, light chain SEQ ID No: 10”, which pharmacokinetics [1] is on record?
The pharmacokinetics was “linear”.

What about the safety profile [1] of the same substance?
Its safety profile is “favorable”.

And the “HERV-W RT protein expression (Western blot signal)” value [2]?
The value was “minor effects”.

What about the “all HERV-W transcript levels compared to basal values at inclusion” value ([3]; 2 mg/kg cohort, PBMC) of the same substance?
The value was “decrease”.

What about the “all HERV-W transcript levels compared to basal values at inclusion” value ([3]; 6 mg/kg cohort, PBMC) of the same substance?
The value was “confirmed”.

What about the “env mRNA and pol mRNA levels compared to levels before treatment” value ([3]; after three and six months of treatment) of the same substance?
The value was “parallel and progressive decrease”.

What about the “HERV-W pol mRNA level” value ([3]; injected once a month over six months, PBMC, pol qPCR protocol) of the same substance?
Its value is “decrease is also marked”.
